According to US8410139B2, “Prodrugs of a piperidinyl derivative as modulators of chemokine receptor activity” (Bristol-Myers Squibb Company, priority 2009, dated 2013):
Converted amounts (≈) assume the structure as drawn. Like-named read-outs stand apart in the source and are kept apart here.

Assays:
[1] = Solution stability assay (pH 1.0 and pH 7.4, 37° C.); assay type: physicochemical; conditions: conversion of the prodrug to compound 1, 37° C., read-out: Aq. Stability half-life (pH 1/7.4) Hrs (converted)
Description: Acetonitrile Stock Solution: Prepare an Acetonitrile Stock Solution of the prodrug by dissolving 1.5-2.0 mg of accurately weighted compound in 5.0 mL of acetonitrile in 5 mL volumetric flask.
(§1) pH 7.4 Buffer Working Solution: Prepare a pH 7.4 Buffer working Solution of drug by adding 1.5 mL of the Acetonitrile Stock Solution to 3.5 mL of stability buffer in a 20 mL scintillation vial, mix very well. Using a 3 mL syringe withdraw ˜3 mL of solution and filter using the Gelman 0.45 μm syringe filter into a clean 1.5 mL LC vial. This filtered solution will be used to evaluate the prodrug degradation throughout the course of the study. Target concentration: 90-120 μg/mL (70% Aqueous: 30% Acetonitrile)
as §1, with “1.0 Acidic” for “7.4 Buffer”, “pH1.0 Working” for “pH 7.4 Buffer working”
Following the sample preparation procedure described above a single sample (n=1) is prepared for each pH condition. The samples were then placed in an HPLC autosampler maintained at 37° C. and samples were analyzed over a 24 hr period. Prodrug remaining (%) is reported relative to the initial peak area (t=0 h). In cases where a conversion to parent half-life could be calculated, a t1/2 was generated. Confirmation of the conversion to parent from the prodrug was obtained by LCMS and HPLC analysis of the final timepoint samples.
Typical LC parameters are shown below:
• HPLC System: HP1100 Series, Hewlett Packard., Heated autosampler • Analytical column. Synergi 4u Hydro C18, 4.6 mm×5.0 cm, Phenomenex • Column temperature: 40° C. • Autosampler temp: 37° C. • Flow rate: 1.0 mL/min • Injection Volume: 10 μL • Mobile Phase: A: Acetonitrile • B: 0.1% Phosphoric acid in water • Run Time: 14.0 minutes • Typical LCMS parameters are shown below: • LC-MS System: Surveyor HPLC system, ThermoFinnigan LCQ Deca XP Max (Ion trap) • Analytical column. Synergi 4u Hydro C18, 4.6 mm×5.0 cm, Phenomenex • Column temperature: 40° C. • Autosampler temp: 22° C. • Flow rate: 1.0 mL/min • Injection Volume: 5 […] • Mobile Phase: A: 95% Acetonitrile/5% 20 mM Ammonium Acetate • B: 5% Acetonitrile/95% 20 mM Ammonium Acetate • LCQ Parameters • Sheath Flow Rate: 81.64 • Aux/Sweep Flow Rate: 19.01 • Current (uA): 10.89 • Voltage (kV): 5.00 • Capillary©: 348.10 • Capillary Voltage (V): 30.44

[2] = Thermodynamic equilibrium aqueous solubility assay; assay type: physicochemical; conditions: aqueous solvent, thermodynamic from solid, read-out: Aq. sol., mg/mL (pH)
Description: Thermodynamic Equilibrium Aqueous Solubility Assay
The calibration standard is prepared by accurately weighing 0.5-0.7 mg of sample in 5 ml of methanol. If the material is not fully soluble in methanol, other solvents such as DMSO or mixed solvents will be used.
*The calibration standard is typically prepared fresh immediately before the start of the assay. A two-point calibration curve should be used to determine the concentration of the final solution. A serial dilution is performed on the standard solution.
The final saturated solution is prepared by adding 1.0 ml of the appropriate aqueous solvent to the remaining portion of material (˜1 mg/l ml) into a 1 dram vial. The solution is sonicated and vortexed for ˜30 seconds. The sample solution is placed on an orbiter that continually agitates the sample solutions for 15-24 hours at room temperature. The final saturated solution is then transferred to a 1.5 ml Eppendorf tube and centrifuged for ˜2 min. at 10000 rpms. The supernatant from the saturated solution is transferred to a glass HPLC vial without filtering since the 1.5 mL volume is insufficient to saturate a syringe filter. This sample preparation procedure nullifies the effects of non-specific binding to the filtering apparatus.
The standards and sample are analyzed by HPLC using either UV/Vis diode array or variable wavelength detection. Typical quantitation wavelengths are 210 or 254 nm; detection wavelength can be individually customized to optimize sensitivity. In addition to UV detection, mass spectrometry detection is recommended if available in order to confirm the identity of the HPLC-UV peak of interest.
Dilutions of aqueous test solutions are performed if HPLC-UV peak is beyond the linear portion of the standard calibration curve. Typical dilutions include 100 ul/900 ul (×10) or 500 ul/500 ul (2×), as required.
HPLC grade solvents are employed.

Compound | half-life ([1]; pH 1) | half-life ([1]; pH 7.4) | solubility thermodynamic ([2]; pH 7.4, aqueous buffer) | solubility thermodynamic ([2]; pH 6.5, aqueous buffer)
CC(C)[C@@H](NC(=O)NCC(C)(C)O)C(=O)N1CC[C@](OCOC(=O)[C@@H](C)O)(c2ccc(Cl)cc2)C(C)(C)C1 [Example 25] | 16.6 h | 73 h | > 0.32 mg/mL | –
CC(O)C(=O)OCO[C@]1(c2ccc(Cl)cc2)CCN(C(=O)[C@H](NC(=O)NCC(C)(C)O)C(C)C)CC1(C)C (stereo partly drawn) [Example 27] | 36 h | > 22 h | – | 0.5 mg/mL (≈ 899 µM)
CC(C)[C@@H](NC(=O)NCC(C)(C)O)C(=O)N1CC[C@](OCOP(=O)(O)O)(c2ccc(Cl)cc2)C(C)(C)C1 [Example 28] | 1.4 h | > 22 h | – | 7.1 mg/mL (≈ 12600 µM)
CC(C)[C@@H](NC(=O)NCC(C)(C)OC(=O)CCOP(=O)(O)O)C(=O)N1CC[C@](O)(c2ccc(Cl)cc2)C(C)(C)C1 [Example 29] | 81 h | > 22 h | – | 4.8 mg/mL (≈ 7920 µM)
CC(O)C(=O)OC(C)(C)CNC(=O)N[C@@H](C(=O)N1CC[C@](O)(c2ccc(Cl)cc2)C(C)(C)C1)C(C)C (stereo partly drawn) [Example 30] | 33 h | > 22 h | – | 0.31 mg/mL (≈ 589 µM)
CC(OP(=O)(O)O)C(=O)OC(C)(C)CNC(=O)N[C@@H](C(=O)N1CC[C@](O)(c2ccc(Cl)cc2)C(C)(C)C1)C(C)C (stereo partly drawn) [Example 31] | 61 h | > 22 h | – | > 3.3 mg/mL

The next lines start with the values.

half-life ([1]; pH 1) | half-life ([1]; pH 7.4) | solubility thermodynamic ([2]; pH 7.4, aqueous buffer) | solubility thermodynamic ([2]; pH 6.5, aqueous buffer) | Compound
> 22 h | > 22 h | – | 1.12 mg/mL (≈ 1850 µM) | CC(C)[C@@H](NC(=O)NCC(C)(C)OC(=O)C(N)CS(=O)(=O)O)C(=O)N1CC[C@](O)(c2ccc(Cl)cc2)C(C)(C)C1 (stereo partly drawn) [Example 32]
> 22 h | > 22 h | – | > 1.6 mg/mL | CCC(O)CC(=O)OCOC(=O)OC(C)(C)CNC(=O)N[C@@H](C(=O)N1CC[C@](O)(c2ccc(Cl)cc2)C(C)(C)C1)C(C)C (stereo partly drawn) [Example 33]
47 h | > 22 h | – | > 0.18 mg/mL | CC(C)[C@@H](NC(=O)NCC(C)(C)OC(=O)OCOC(=O)CS(=O)(=O)O)C(=O)N1CC[C@](O)(c2ccc(Cl)cc2)C(C)(C)C1 [Example 34]
100 h | 30.3 h | – | 0.18 mg/mL (≈ 324 µM) | CC(O)COC(=O)OC(C)(C)CNC(=O)N[C@@H](C(=O)N1CC[C@](O)(c2ccc(Cl)cc2)C(C)(C)C1)C(C)C (stereo partly drawn) [Example 35]
97 h | > 22 h | – | > 1.2 mg/mL | CC(COC(=O)OC(C)(C)CNC(=O)N[C@@H](C(=O)N1CC[C@](O)(c2ccc(Cl)cc2)C(C)(C)C1)C(C)C)OP(=O)(O)O (stereo partly drawn) [Example 36]
